Values joined by “and” are separate entries in the source; they are usually repeats but may differ in a detail not shown here. Equal values may be shown once. Inconclusive results and toxic doses are left out. Rule for the calls: active = survival T/C of 150% or more; inactive = T/C below 125% in these data.
System: P388 leukemia ip, CD2F1 mice, survival T/C
Assay: NCI In Vivo Anticancer Drug Screen. Data for tumor model P388 Leukemia (intraperitoneal) in CD2F1 (CDF1) mice
Settings: endpoint: median survival time, higher = longer survival
Method in brief: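 Mice carrying the transplanted tumor received test compound or vehicle. Survival was recorded in each group, and the value is the treated-group measurement divided by that of the vehicle-treated control group.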

[1] = dose: 50.0 mg/kg/injection, schedule: Q01DX009 (ip), vehicle: saline with Tween-80
[2] = dose: 100.0 mg/kg/injection, schedule: Q01DX009 (ip), vehicle: saline with Tween-80
[3] = dose: 200.0 mg/kg/injection, schedule: Q01DX009 (ip), vehicle: saline with Tween-80
[4] = dose: 12.5 mg/kg/injection, schedule: Q01DX009 (ip), vehicle: water
[5] = dose: 25.0 mg/kg/injection, schedule: Q01DX009 (ip), vehicle: water
[6] = dose: 50.0 mg/kg/injection, schedule: Q01DX009 (ip), vehicle: water
[7] = dose: 60.0 mg/kg/injection, schedule: Q01DX005 (ip), vehicle: saline with Tween-80
[8] = dose: 120.0 mg/kg/injection, schedule: Q01DX005 (ip), vehicle: saline with Tween-80
[9] = dose: 240.0 mg/kg/injection, schedule: Q01DX005 (ip), vehicle: saline with Tween-80
[10] = dose: 50.0 mg/kg/injection, schedule: Q01DX005 (ip), vehicle: saline with Tween-80
[11] = dose: 100.0 mg/kg/injection, schedule: Q01DX005 (ip), vehicle: saline with Tween-80

Measured: T/C

CC(=O)OC1(C)CC(C)C(=O)C(C(O)CC2CC(=O)NC(=O)C2)C1 (stereo not given)
inactive: dose: 130.0 micrograms/kg/injection, schedule: Q01DX009 (ip), vehicle: saline 111 % of control | dose: 1300.0 micrograms/kg/injection, schedule: Q04DX003 (ip), vehicle: saline 120 % of control | dose: 2160.0 micrograms/kg/injection, schedule: Q04DX003 (ip), vehicle: saline 113 % of control | dose: 3600.0 micrograms/kg/injection, schedule: Q04DX003 (ip), vehicle: saline 113 % of control and 119 % of control | dose: 6000.0 micrograms/kg/injection, schedule: Q04DX003 (ip), vehicle: saline 118 % of control

O=c1[nH]nc(NCCCCO)c2ccccc12
inactive: [1] 95 % of control | [2] 95 % of control | [3] 91 % of control

[O-]/[N+](=C\c1ccccc1)C(c1ccccc1)c1ccccc1
inactive: dose: 25.0 mg/kg/injection, schedule: Q04DX003 (ip), vehicle: saline 100 % of control | dose: 50.0 mg/kg/injection, schedule: Q04DX003 (ip), vehicle: saline 100 % of control | dose: 100.0 mg/kg/injection, schedule: Q04DX003 (ip), vehicle: saline 100 % of control

CCCCNc1ccc(C(=O)OC2CCN(C)CC2)c(Cl)c1
inactive: dose: 0.79 mg/kg/injection, schedule: Q01DX009 (ip), vehicle: saline with Tween-80 111 % of control and 119 % of control and 97 % of control | dose: 1.56 mg/kg/injection, schedule: Q01DX009 (ip), vehicle: saline with Tween-80 106 % of control and 119 % of control | dose: 12.5 mg/kg/injection, schedule: Q01DX009 (ip), vehicle: saline with Tween-80 107 % of control

Cc1ccc(N)c2ccccc12
inactive: dose: 50.0 mg/kg/injection, schedule: Q01DX009 (ip), vehicle: saline 117 % of control | dose: 100.0 mg/kg/injection, schedule: Q01DX009 (ip), vehicle: saline 112 % of control

O=NNc1nc2ccc([N+](=O)[O-])cc2s1
inactive: dose: 3.12 mg/kg/injection, schedule: Q01DX009 (ip), vehicle: water 95 % of control | dose: 6.25 mg/kg/injection, schedule: Q01DX009 (ip), vehicle: water 95 % of control | [4] 103 % of control and 97 % of control | [5] 106 % of control and 109 % of control and 112 % of control | [6] 112 % of control and 118 % of control

O=[N+]([O-])c1cccc(CNc2ccccc2)c1
inactive: dose: 100.0 mg/kg/injection, schedule: Q04DX003 (ip), vehicle: Klucel (hydroxypropylcellulose) (HPC) 101 % of control | dose: 200.0 mg/kg/injection, schedule: Q04DX003 (ip), vehicle: Klucel (hydroxypropylcellulose) (HPC) 101 % of control | dose: 400.0 mg/kg/injection, schedule: Q04DX003 (ip), vehicle: Klucel (hydroxypropylcellulose) (HPC) 109 % of control

O=C(c1ccccc1)N1OC2C=CC1CC2 (stereo not given)
inactive: [1] 104 % of control | [2] 98 % of control | [3] 109 % of control

COC(=O)C(NC(=O)c1ccccc1)C1CCC(Cl)CN1C(=O)OCc1ccccc1 (stereo not given)
inactive: dose: 8.75 mg/kg/injection, schedule: Q01DX009 (ip), vehicle: Klucel (hydroxypropylcellulose) (HPC) 100 % of control | dose: 17.5 mg/kg/injection, schedule: Q01DX009 (ip), vehicle: Klucel (hydroxypropylcellulose) (HPC) 100 % of control | dose: 35.0 mg/kg/injection, schedule: Q01DX009 (ip), vehicle: Klucel (hydroxypropylcellulose) (HPC) 100 % of control | dose: 70.0 mg/kg/injection, schedule: Q01DX009 (ip), vehicle: Klucel (hydroxypropylcellulose) (HPC) 92 % of control

NC(CCCC(N)C(=O)c1ccccc1)C(=O)c1ccccc1 (stereo not given)
inactive: [7] 92 % of control | [8] 91 % of control | [9] 92 % of control

O=C(O)c1ccc2n[se]nc2c1
inactive: [7] 96 % of control | [8] 105 % of control | [9] 97 % of control

Cc1ccc(C)c(CN(CCO)CCO)c1
inactive: dose: 60.0 mg/kg/injection, schedule: Q01DX005 (ip), vehicle: saline 109 % of control | dose: 120.0 mg/kg/injection, schedule: Q01DX005 (ip), vehicle: saline 102 % of control

CC1(C)OC2(C)CCC1C1C2N1C(=O)Nc1cccc(Cl)c1 (stereo not given)
inactive: [10] 101 % of control | [11] 92 % of control | dose: 200.0 mg/kg/injection, schedule: Q01DX005 (ip), vehicle: saline with Tween-80 89 % of control

O=C(O)C1C2C(=O)N(CO)C(=O)C2C(C(=O)O)C2C3C(=O)N(CO)C(=O)C3C12 (stereo not given)
inactive: [4] 108 % of control | [5] 99 % of control | [6] 102 % of control and 105 % of control and 92 % of control | dose: 100.0 mg/kg/injection, schedule: Q01DX009 (ip), vehicle: water 107 % of control and 117 % of control and 120 % of control | dose: 200.0 mg/kg/injection, schedule: Q01DX009 (ip), vehicle: water 114 % of control and 120 % of control

CC1=c2c(oc3cc(O)c(Nc4c(C)cc(O)cc4O)c(C)c23)=CC(=O)C1=Nc1c(C)cc(O)cc1O
inactive: dose: 60.0 mg/kg/injection, schedule: Q01DX005 (ip), vehicle: Klucel (hydroxypropylcellulose) (HPC) 95 % of control | dose: 120.0 mg/kg/injection, schedule: Q01DX005 (ip), vehicle: Klucel (hydroxypropylcellulose) (HPC) 89 % of control | dose: 240.0 mg/kg/injection, schedule: Q01DX005 (ip), vehicle: Klucel (hydroxypropylcellulose) (HPC) 95 % of control

C=C1CC2(CC(C(=C)C)CC=C2C)OC1=O (stereo not given)
inactive: dose: 100.0 mg/kg/injection, schedule: Q01DX001 (ip), vehicle: saline 101 % of control | dose: 200.0 mg/kg/injection, schedule: Q01DX001 (ip), vehicle: saline 104 % of control | dose: 400.0 mg/kg/injection, schedule: Q01DX001 (ip), vehicle: saline 109 % of control

CCCC#CC#N
inactive: dose: 50.0 mg/kg/injection, schedule: Q01DX009 (ip), vehicle: olive oil, sesame oil, peanut oil 116 % of control

CC1(C)CC2(OC2c2ccc([N+](=O)[O-])cc2)C(=O)c2ccccc21 (stereo not given)
inactive: dose: 0.78 mg/kg/injection, schedule: Q01DX009 (ip), vehicle: Klucel (hydroxypropylcellulose) (HPC) 87 % of control | dose: 1.56 mg/kg/injection, schedule: Q01DX009 (ip), vehicle: Klucel (hydroxypropylcellulose) (HPC) 88 % of control | dose: 3.13 mg/kg/injection, schedule: Q01DX009 (ip), vehicle: Klucel (hydroxypropylcellulose) (HPC) 90 % of control | [1] 100 % of control | [2] 90 % of control | [3] 95 % of control | dose: 400.0 mg/kg/injection, schedule: Q01DX009 (ip), vehicle: Klucel (hydroxypropylcellulose) (HPC) 93 % of control

O=[N+]([O-])c1cccnc1N=Nc1c(O)[nH]c2ccccc12
inactive: [7] 100 % of control | [8] 101 % of control | [9] 110 % of control

CCCC[N+](CCCC)(CCCC)CCCC.O=C([O-])[O-].O=C([O-])[O-].[Co+3].[NH-]CC[NH-]
inactive: dose: 50.0 mg/kg/injection, schedule: Q01DX009 (ip), vehicle: suspension in saline 113 % of control and 123 % of control | dose: 100.0 mg/kg/injection, schedule: Q01DX009 (ip), vehicle: suspension in saline 120 % of control

NC(=O)C(Br)(Br)C(=O)c1nc(N)nc(N)n1
inactive: [10] 107 % of control | [11] 99 % of control

C=C(C#N)CCl
inactive: dose: 25.0 mg/kg/injection, schedule: Q01DX001 (ip), vehicle: saline with Tween-80 104 % of control | dose: 50.0 mg/kg/injection, schedule: Q01DX001 (ip), vehicle: saline with Tween-80 95 % of control
